Reference: patent US9334263B2, “Compositions useful for treating disorders related to kit” (BLUEPRINT MEDICINES CORPORATION, priority 2013, dated 2016)

Experiments:
[1] = target: T1, wild type Kit (Homo sapiens, UniProt P10721); experiment: Kit wild type assay at Km (Caliper electrophoretic mobility shift); format: biochemical; conditions: 400 uM ATP, 25 C, 90 minutes; read-out: WT KIT
T1 construct: purchased Carna Bioscience 08-156
Protocol: In order to assess the activity of chemical compounds against the relevant kinase of interest, the Caliper LifeSciences electrophoretic mobility shift technology platform is used. Fluorescently labeled substrate peptide is incubated in the presence of kinase and ATP so that a […] proportion of the peptide is phosphorylated. At the end of the reaction, the mix of phosphorylated (product) and non-phosphorylated (substrate) peptides are passed through the microfluidic system of the Caliper EZ Reader 2, under an applied potential difference. The presence of the phosphate group on the product peptide provides a difference in mass and charge between those of the substrate peptide, resulting in a separation of the substrate and product pools in the sample. As the pools pass a LEDS within the instrument, these pools are detected and resolved as separate peaks. The ratio between these peaks therefore reflects the activity of the chemical matter at that concentration in that well, under those conditions.
The reaction was stopped by the addition of 70 ul of Stop buffer (100 mM HEPES pH 7.5, 0.015% Brij 35, 35 mM EDTA and 0.2% of Coating Reagent 3 (Caliper Lifesciences)). The plate was then read on a Caliper EZReader 2 (protocol settings: −1.9 psi, upstream voltage −700, downstream voltage −3000, post sample sip 35 s).

[2] = target: T2, D816V Kit (Homo sapiens, UniProt P10721, D816V); experiment: Kit D816V assay at Km (Caliper electrophoretic mobility shift); format: biochemical; conditions: 15 uM ATP, 25 C, 90 minutes
T2 construct: purchased Carna Bioscience 08-156
T2 sequence (P10721 26-976 D816V): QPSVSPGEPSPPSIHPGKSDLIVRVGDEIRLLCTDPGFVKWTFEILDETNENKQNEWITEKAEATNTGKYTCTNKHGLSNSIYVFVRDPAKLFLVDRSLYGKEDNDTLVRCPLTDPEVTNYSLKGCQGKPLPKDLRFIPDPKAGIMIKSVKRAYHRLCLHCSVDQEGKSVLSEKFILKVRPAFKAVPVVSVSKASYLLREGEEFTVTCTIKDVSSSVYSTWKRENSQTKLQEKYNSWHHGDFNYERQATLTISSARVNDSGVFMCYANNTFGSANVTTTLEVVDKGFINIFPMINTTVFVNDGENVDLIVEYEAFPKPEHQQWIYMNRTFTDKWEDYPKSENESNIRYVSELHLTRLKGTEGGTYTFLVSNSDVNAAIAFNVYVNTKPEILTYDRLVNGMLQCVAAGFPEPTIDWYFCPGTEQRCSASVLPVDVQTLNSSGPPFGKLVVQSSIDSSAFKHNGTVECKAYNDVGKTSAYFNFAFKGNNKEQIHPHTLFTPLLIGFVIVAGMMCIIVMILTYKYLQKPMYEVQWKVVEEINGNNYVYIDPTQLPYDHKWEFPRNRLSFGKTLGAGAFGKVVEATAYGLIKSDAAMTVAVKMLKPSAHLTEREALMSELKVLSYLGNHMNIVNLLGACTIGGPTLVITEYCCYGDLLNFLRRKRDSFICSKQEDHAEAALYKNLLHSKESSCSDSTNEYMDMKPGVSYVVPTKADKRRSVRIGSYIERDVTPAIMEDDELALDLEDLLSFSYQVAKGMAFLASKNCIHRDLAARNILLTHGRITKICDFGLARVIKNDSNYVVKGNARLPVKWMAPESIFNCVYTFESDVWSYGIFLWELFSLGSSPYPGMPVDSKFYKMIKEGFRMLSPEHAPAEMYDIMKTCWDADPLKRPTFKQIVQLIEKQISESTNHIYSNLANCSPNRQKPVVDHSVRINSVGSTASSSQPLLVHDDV
How it was run: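 Read-out is the ratio of phosphorylated to unphosphorylated fluorescent peptide, resolved by mobility shift on a Caliper EZ Reader 2.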

[3] = target: T3, Kit D816V (HMC1.2 cells, Kit V560G and D816V) (Homo sapiens, UniProt P10721, D816V/V560G); experiment: HMC1.2 autophosphorylation assay (AlphaLISA, phospho-Y719 c-Kit); format: cell-based; conditions: Kit autophosphorylation at tyrosine 719, 90 minutes, read-out: Cellular Activity
T3 construct: endogenous in cells; host or cells: HMC1.2 cells
T3 sequence (P10721 26-976 V560G/D816V): as the sequence (P10721 26-976 D816V) above, with V535G counted along it
How it was run: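 Serum-starved (overnight, serum-free IMDM) HMC1.2 cells were treated for 90 min with a 10-point compound series (25 uM–95.4 pM, 0.25% DMSO final). Lysates were probed with phospho-Y719 and total c-Kit antibodies (15 nM final) plus AlphaLISA acceptor and streptavidin donor beads (2 h each, RT), with AlphaScreen read-out.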

T1 sequence (P10721 26-976): as the sequence (P10721 26-976 D816V) above, with V791D counted along it

| Structure (SMILES) | IC50 [1] [nM] | IC50 [2] [nM] | IC50 [3] [nM] |
| --- | --- | --- | --- |
| CS(=O)(=O)c1ccc(Nc2ncnc(N3CCN(c4ncc(Cc5ccccc5)c(O)n4)CC3)n2)cc1 [Compound 143] | 11 to 100 | 1.01 to 10 | 100 to 1000 |
| OCCC1CN(c2ncnc(Nc3ccc4c(c3)CNCC4)n2)CCN1c1ncc(Cc2ccccc2)cn1 (stereo not drawn) [Compound 164] | < 10 | < 1 | < 10 |
| CN1CCC[C@H]1COc1ccc(Nc2ncnc(N3CCN(c4ncc(Cc5ccccc5)c(N)n4)CC3)n2)cc1 [Compound 266] | < 10 | < 1 | < 10 |
| c1ccc(Cc2cnc(N3CCN(c4ncnc(NCCCN5CCOCC5)n4)CC3)nc2)cc1 [Compound 37] | > 1000 | > 100 | – |
| c1ccc(Cc2cnc(N3CCN(c4ncnc(Nc5ccc(OC[C@@H]6CCCN6)cc5)n4)CC3)nc2)cc1 [Compound 170] | 11 to 100 | < 1 | 10 to 100 |
| c1ccc(Cc2cnc(N3CCN(c4ncnc(Nc5ccc6c(c5)CNCC6)n4)C(Cc4ccccc4)C3)nc2)cc1 (stereo not drawn) [Compound 274] | 100 to 1000 | 10 to 100 | – |
| c1ccc(Cc2cnc(N3CCN(c4ncnc(Nc5cnn(C[C@@H]6CCCN6)c5)n4)CC3)nc2)cc1 [Compound 85] | 11 to 100 | < 1 | 10 to 100 |
| CC(=O)NCc1cccc(Nc2ncnc(N3CCN(c4ncc(Cc5ccccc5)cn4)CC3)n2)c1 [Compound 74] | 11 to 100 | < 1 | 10 to 100 |
| c1ccc(Cc2cnc(N3CCN(c4ncnc(Nc5cnn(C[C@H]6CCCN6)c5)n4)CC3)nc2)cc1 [Compound 84] | < 10 | < 1 | 10 to 100 |
| CN1CCO[C@@H](Cn2cc(Nc3ncnc(N4CCN(c5ncc(Cc6ccccc6)cn5)CC4)n3)cn2)C1 [Compound 180] | 11 to 100 | < 1 | 10 to 100 |
| CP(C)(=O)c1ccc(Nc2ncnc(N3CCN(c4ncc(Nc5ccc(F)cc5)cn4)CC3)n2)cc1 [Compound 144] | 11 to 100 | 1.01 to 10 | 100 to 1000 |
| NS(=O)(=O)c1ccc(Nc2ncnc(N3CCN(c4ncc(Cc5ccccc5)cn4)CC3)n2)cc1 [Compound 96] | 11 to 100 | < 1 | 100 to 1000 |
| CN(C)CCn1cc(Nc2ncnc(N3CCN(c4ncc(Cc5ccccc5)cn4)CC3)n2)cn1 [Compound 60] | 11 to 100 | < 1 | 10 to 100 |
| C[C@@H]1CN(c2ncnc(Nc3ccc(P(C)(C)=O)cc3)n2)CCN1c1ncc(Cc2ccccc2)cn1 [Compound 128] | 11 to 100 | 1.01 to 10 | 100 to 1000 |
| COc1cc(Nc2ncnc(N3CCN(c4ncc(Cc5ccccc5)cn4)CC3)n2)cc(OC)c1 [Compound 54] | 100 to 1000 | 1.01 to 10 | – |
| OCC(O)Cn1cc(Nc2ncnc(N3CCN(c4ncc(Cc5ccccc5)cn4)CC3)n2)cn1 (stereo not drawn) [Compound 64, 3-(4-(4-(4-(5-benzylpyrimidin-2-yl)piperazin-1-yl)-1,3,5-triazin-2-ylamino)-1H-pyrazol-1-yl)propane-1,2-diol] | 11 to 100 | < 1 | 10 to 100 |
| FC1(F)CN(Cc2cccc(Nc3ncnc(N4CCN(c5ncc(Cc6ccccc6)cn5)CC4)n3)c2)C1 [Compound 188] | 11 to 100 | 1.01 to 10 | 10 to 100 |
| c1ccc(Cc2cnc(N3CCN(c4ncnc(Nc5cnn(CC6CNC6)c5)n4)CC3)nc2)cc1 [Compound 51] | 11 to 100 | < 1 | 10 to 100 |
| CS(=O)(=O)c1ccc(Nc2ncnc(N3CCN(C(=O)Nc4ccc(C#N)cc4)CC3)n2)cc1 [Compound 40] | 11 to 100 | 10 to 100 | – |
| c1ccc(Nc2cnc(N3CCN(c4ncnc(Nc5ccccc5)n4)CC3)nc2)cc1 [Compound 9] | 100 to 1000 | 10 to 100 | – |
| N#Cc1ccc(NC(=O)N2CCN(c3ncnc(Nc4ccc(N5CCOCC5)cc4)n3)CC2)cc1 [Compound 59] | 100 to 1000 | > 100 | – |

More lines, now with the values ahead:

| IC50 [1] [nM] | IC50 [2] [nM] | IC50 [3] [nM] | Structure (SMILES) |
| --- | --- | --- | --- |
| 11 to 100 | < 1 | 1000 to 10000 | NS(=O)(=O)c1cccc(Nc2ncnc(N3CCN(c4ncc(Cc5ccccc5)cn4)CC3)n2)c1 [Compound 95] |
| 11 to 100 | < 1 | 10 to 100 | CN1CCN(c2ccc(Nc3ncnc(N4CCN(c5ncc(Cc6ccccc6)cn5)CC4)n3)cc2F)CC1 [Compound 237] |
| 100 to 1000 | 1.01 to 10 | 100 to 1000 | CC(=O)c1cccc(Nc2ncnc(N3CCN(c4ncc(Cc5ccccc5)cn4)CC3)n2)c1 [Compound 22] |
| 11 to 100 | < 1 | 100 to 1000 | c1ccc(Cc2cnc(N3CCN(c4ncnc(Nc5cccc(O[C@@H]6CCNC6)c5)n4)CC3)nc2)cc1 [Compound 105] |
| < 10 | < 1 | 10 to 100 | c1ccc(Cc2cnc(N3CCN(c4ncnc(Nc5ccc6c(c5)CNCCO6)n4)CC3)nc2)cc1 [Compound 76] |
| < 10 | < 1 | < 10 | CN1CCC[C@@H](Oc2ccc(Nc3ncnc(N4CCN(c5ncc(Cc6ccccc6)cn5)CC4)n3)cc2)C1 [Compound 216] |
| 11 to 100 | 1.01 to 10 | 1000 to 10000 | CC(C)(O)c1cccc(Nc2ncnc(N3CCN(c4ncc(Cc5ccccc5)cn4)CC3)n2)c1 [Compound 50] |
| < 10 | < 1 | 10 to 100 | CN(C)[C@H]1CCN(Cc2cccc(Nc3ncnc(N4CCN(c5ncc(Cc6ccccc6)cn5)CC4)n3)c2)C1 [Compound 260] |
| 11 to 100 | 1.01 to 10 | 100 to 1000 | c1ccc(Cc2cnc(N3CCN(c4ncnc(Nc5cccc(N6CCOCC6)c5)n4)CC3)nc2)cc1 [Compound 104] |
| 11 to 100 | 1.01 to 10 | 100 to 1000 | Cc1cc(N2CCNCC2)ccc1Nc1ncnc(N2CCN(c3ncc(Cc4ccccc4)cn3)CC2)n1 [Compound 158] |
| < 10 | < 1 | < 10 | FC1(Cn2cc(Nc3ncnc(N4CCN(c5ncc(Cc6ccccc6)cn5)CC4)n3)cn2)CCNCC1 [Compound 191] |
| < 10 | < 1 | 10 to 100 | COCCN1CCc2ccc(Nc3ncnc(N4CCN(c5ncc(Cc6ccccc6)cn5)CC4)n3)cc2C1 [Compound 215] |
| 100 to 1000 | 1.01 to 10 | 100 to 1000 | FC(F)(F)CN1CCc2ccc(Nc3ncnc(N4CCN(c5ncc(Cc6ccccc6)cn5)CC4)n3)cc2C1 [Compound 268] |
| < 10 | < 1 | 10 to 100 | CN1CCC[C@@H]1COc1ccc(Nc2ncnc(N3CCN(c4ncc(Cc5ccccc5)cn4)CC3)n2)cc1 [Compound 218] |
| < 10 | < 1 | 10 to 100 | CN1CCN(c2ccc(Nc3ncnc(N4CCN(c5ncc(Cc6ccccc6)cn5)CC4)n3)cc2)CC1 [Compound 156] |
| < 10 | < 1 | 10 to 100 | c1ccc(Cc2cnc(N3CCN(c4ncnc(Nc5ccc6c(c5)CNCC6)n4)CC3)nc2)cc1 [Compound 41] |
| 11 to 100 | 1.01 to 10 | 1000 to 10000 | c1ccc(Cc2cnc(N3CCN(c4ncnc(Nc5ccccc5)n4)CC3)nc2)cc1 [Compound 7] |
| 11 to 100 | < 1 | 10 to 100 | OC1(Cn2cc(Nc3ncnc(N4CCN(c5ncc(Cc6ccccc6)cn5)CC4)n3)cn2)CCNCC1 [Compound 182] |
| 11 to 100 | 1.01 to 10 | 100 to 1000 | NC(=O)c1cccc(Nc2ncnc(N3CCN(c4ncc(Cc5ccccc5)cn4)CC3)n2)c1 [Compound 23] |
| 11 to 100 | 1.01 to 10 | 100 to 1000 | NC(=O)c1ccc(Nc2ncnc(N3CCN(c4ncc(Cc5ccccc5)cn4)CC3)n2)cc1 [Compound 24] |
| 11 to 100 | 1.01 to 10 | 10 to 100 | c1ccc(Cc2cnc(N3CCN(c4ncnc(Nc5ccc6c(c5)NCCC6)n4)CC3)nc2)cc1 [Compound 42] |
| < 10 | < 1 | < 10 | c1ccc(Cc2cnc(N3CCN(c4ncnc(Nc5ccc(O[C@H]6CCCNC6)cc5)n4)CC3)nc2)cc1 [Compound 162] |
| 11 to 100 | < 1 | 100 to 1000 | CP(C)(=O)c1ccc(Nc2ncnc(N3CCN(c4ncc(Cc5ccccc5)cn4)CC3)n2)cc1 [Compound 89] |
| 11 to 100 | 1.01 to 10 | 100 to 1000 | c1ccc(Cc2cnc(N3CCN(c4ncnc(Nc5ccc(N6CCOCC6)cc5)n4)CC3)nc2)cc1 [Compound 103] |
| 11 to 100 | < 1 | 10 to 100 | CN(C)Cc1cccc(Nc2ncnc(N3CCN(c4ncc(Cc5ccccc5)cn4)CC3)n2)c1 [Compound 49] |
